Experiments:
HBL100 cells = assay: Apoptosis assay, annexin V staining; format: cell-based, human; conditions: for annexin staining: HBL100
Experimental: (§1) 1.5×10^5 of Hela cells, ZNF217-GFP transfected HeLa cells, HBL100 cells and ZNF217-GFP transfected HBL100 cells were set up in six well plates and cultured as described above. One the second day, the cells were treated with 100 ng/ml doxirubicin for 16 hours. The cell culture supernatants and cells were collected and washed twice with PBS, resuspended in 100 μl of binding buffer (10 mM HEPS, 140 mM NaCl and 2.5 mM CaCl2, pH 7.4). 5 μl of Annexin V antibody (Alexa Fluor 633 from Molecular Probes) was added and the cells were incubated at room temperature for 15 minutes. After the incubation, 400 μl of binding buffer were added and cell samples were analyzed by flow cytometry. A 633-nm wavelength laser was used to measure the apoptotic cell population. For imaging 1.5×10^4 cells were seeded in 4 well cover glass slides (Fisher). Doxorubicin treating cells 16 hours later, the cells were washed with PBS twice and 200 μl of binding buffer were added, staining process was as same as above and in the meantime, 0.5 μM of DAPI were added to satin the cell nucleus. After staining, the cells were washed twice again with PBS, 400 μl of Binding buffer were added. The apoptotic cells were imaged in Seize con-focal image system.

[1] = system: HBL100 cells transfected with ZNF217-EGFP; assay: Apoptosis assay, annexin V staining; format: cell-based, human; conditions: for annexin staining: ZNF217-EGFP transfected HBL100
Experimental: as §1
ZNF217 silencing RNA (siRNA) constructs were introduced into HBL100 cells transfected with znf217 and the cells were subsequently treated with Doxorubicin.
The siRNA Dicer Generation kit from Gene Therapy System was used to generate a series of siRNAs. Approximately 30 different 22 bp siRNA sequences were generated, using the following primers: […]

[2] = system: MCF7, 600MPE and HBL100 breast cancer cell lines; assay: Sensitivity of breast cancer cell lines to doxorubicin (cell death)
[3] = system: 184 HMEC and ZNF217 immortalized HMEC; assay: Doxorubicin induced cell death in ZNF217 transduced versus parental HMEC; format: cell-based; conditions: 100 ng/ml doxorubicin; p=0.0146
Description: In order to determine if ZNF217 could confer resistance to doxorubicin on primary mammary epithelial cells, the sensitivity of HMECs which had been previously immortalized by a ZNF217-HA expression construct (Nonet, G. H. et al., 2001, supra) were compared to parental 184 HMECs with finite life span. […] Thus, as well as promoting HMEC immortalization, ZNF217 expression protects HMEC against doxorubicin-induced apoptosis.

[4] = increasing concentrations, in combination with doxorubicin
[5] = not also treated with doxorubicin

## CN1N=C(N)c2cn([C@@H]3O[C@H](COP(=O)(O)O)[C@@H](O)[C@H]3O)c3ncnc1c23 [triciribine phosphate]
HBL100 cells; [4]
  annexin staining: increased annexin staining
HBL100 cells; [5]
  annexin staining: did not display significant staining
HBL100 cells; HBL100 not transfected (FIG. 11), increasing concentrations, in combination with Doxorubicon
  cell death: increased cell death
[1]; HBL100 transfected with ZNF217-encoding constructs (FIG. 12), increasing concentrations, in combination with Doxorubicon
  cell death: increased cell death
[1]; [4]
  annexin staining: increased annexin staining
[1]; [5]
  annexin staining: did not display significant staining

## COc1cccc2c1C(=O)c1c(O)c3c(c(O)c1C2=O)C[C@@](O)(C(=O)CO)C[C@@H]3O[C@H]1C[C@H](N)[C@H](O)[C@H](C)O1 [doxorubicin]
HBL100 cells; control HBL100 cells, doxorubicin treatment
  cells stained with annexin: About 80%
[2]; HBL100 compared with MCF7 and 600MPE
  cell death upon exposure to doxorubicin: higher levels of cell death
[2]; MCF7 and 600MPE versus HBL100, all wild type TP53
  resistance to doxorubicin of cell lines with high relative ZNF217 expression versus HBL100: three to five-fold more resistant
[3]
  less cell death in ZNF217 transduced cells than in control non-transduced 184 HMEC: 2.5 fold
[1]; ZNF217 transfected HBL100, doxorubicin treatment
  cells stained with annexin: Less than 40%
